Reference: PubChem BioAssay AID2060513 (Molecular Pharmacology Branch, DTP, NCI, 2025)

System: 299254-011-R-J1-PDC complex spheroids viability
Test: Anticancer human tumor 299254-011-R-J1-PDC patient-derived melanoma cell line growth inhibition [GQUAD]
Details: for IC50: curve of first compound; for viability, T/C: stronger effect = lower value; active = viability on the fitted dose curve at most 10% of control; inactive = the rest
Source text: DNA G-quadruplex Stabilizer Agents in Combinations in Complex Spheroids
A high-throughput screen of multi-cell type tumor spheroids was designed to identify active combinations of DNA G-quadruplex stabilizer agents and targeted small molecules. Complex spheroids include a stromal component modeled by human endothelial cells (HUVEC) and fibroblasts modeled by human mesenchymal stem cells (MSCs). The concentration ranges selected for each drug and investigational agent were based upon clinically achievable concentrations if the clinical Cmax of the agent was known.
Compounds. The drugs and investigational agents: pidnarulex (CX-5461; NSC782164), APTO-253 (NSC789042), BRACO-19 (NSC847499), peposertib (NSC802822), ceralasertib (NSC780249), elimusertib (NSC800525), camonsertib (NSC841442), AZD-1390 (NSC803789), olaparib (NSC753686), talazoparib (NSC767125), ART-558 (NSC835418), sotorasib (NSC818433), MRTX-1133 (NSC836407), SN-38 (NSC673596), topotecan (NSC609699), etoposide (NSC141540), doxorubicin (NSC123127), gemcitabine (NSC613327), 5-fluorouracil (NSC19893), paclitaxel (NSC125973), vemurafenib (NSC761431), panobinostat (NSC761190), R-306465 (JNJ-16241199; NSC773264), adavosertib (NSC754352), TP-3654 (NSC805149), carboplatin (NSC241240), KSQ-4279 (NSC840948), and staurosporine (NSC755774) were obtained from the National Cancer Institute (NCI) Developmental Therapeutics Program Chemical Repository (34). The FDA-approved anticancer drug set is available from the NCI Developmental Therapeutics Program. […] The stock solutions were prepared in dimethyl sulfoxide (DMSO, Sigma-Aldrich, St. Louis, MO, cat. D2650) at 800-fold the tested concentration and stored at -70 degrees C prior to their use. All drugs and investigational agents were tested over a range starting from a high concentration at or near the clinical Cmax and decreasing in half-log increments. If the clinical Cmax for an agent had not been determined, the highest concentration tested was 10 microM.
2.3 Cell Culture. All cells were maintained in an incubator at 37 degrees C and 5% CO2 with 95% humidity. The PDC lines were cultured according to standard operating procedures established by the NCI PDMR. All PDCs were thawed and cultured in Matrigel-coated flasks prepared with a working solution of 1X Ham's F-12 nutrient mix, without supplementation (Invitrogen, cat. 11765054), 100 U/mL penicillin-streptomycin (Invitrogen, cat. 15140122), and 2.5% Matrigel (Corning Inc., cat. 354248) for the first three passages. The 857933-349-R-J2-PDC line was cultured in 6C/Colon 1B media, which includes advanced DMEM/F-12 (Thermo Fisher Scientific, cat. 12634028), 10 mM HEPES (Thermo Fisher Scientific, cat. 15630080), 1X GlutaMAX supplement (Thermo Fisher Scientific, cat. 35050061), 0.1 mg/mL primocin (InvivoGen, cat. ant-pm-2), 10% defined fetal bovine serum, heat inactivated (HyClone Laboratories Inc., cat. SH30070.03HI), 50% L-WRN conditioned media (ATCC, cat. CRL-3276), 1.25 mM N-Acetyl-L-cysteine (Sigma-Aldrich, cat. A9165), 10 mM nicotinamide (Sigma-Aldrich, cat. N0636), 1X B-27 supplement (Thermo Fisher Scientific, cat. 17504044), 1X N-2 supplement (Thermo Fisher Scientific, cat. 17502048), 10 microM Y-27632 dihydrochloride (Tocris Bioscience, cat. 1254), and 50 ng/mL human EGF recombinant protein (Thermo Fisher Scientific, cat. PHG0311). The 485176-168-R4-J1-PDC line was cultured in Panc media, which includes all 6C/Colon 1B media components plus 100 ng/mL human FGF-10 (Thermo Fisher Scientific, cat. 100-26), 500 nM SB-431542 (Selleckchem, cat. S1067), and gastrin (Tocris, cat. 3006).
[…]

[1] = second compound 0.0316 µM, first compound 0.0316 µM
[2] = second compound 0.0316 µM, first compound 0.316 µM
[3] = second compound 0.1 µM, first compound 0.0316 µM
[4] = second compound 0.1 µM, first compound 0.316 µM
[5] = second compound 0.316 µM, first compound 0.0316 µM
[6] = second compound 0.316 µM, first compound 0.316 µM
[7] = second compound 1 µM, first compound 0.0316 µM
[8] = second compound 1 µM, first compound 0.316 µM
[9] = second compound 3.16 µM, first compound 0.0316 µM
[10] = second compound 3.16 µM, first compound 0.316 µM
[11] = second compound 10 µM, first compound 0.0316 µM
[12] = second compound 10 µM, first compound 0.316 µM
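Also: spheroids exposed to the agents for seven days before readout.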
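For viability, T/C in this document: percent viability relative to DMSO vehicle control wells = 100%.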

CCc1c2c(nc3ccc(O)cc13)-c1cc3c(c(=O)n1C2)COC(=O)[C@]3(O)CC + CN(C)c1ccc(Nc2c3ccc(NC(=O)CCN4CCCC4)cc3nc3cc(NC(=O)CCN4CCCC4)ccc23)cc1
> 316 nM: IC50 (second compound 0.0316 µM) | IC50 (second compound 0.1 µM) | IC50 (second compound 0.316 µM) | IC50 (second compound 1 µM) | IC50 (second compound 3.16 µM) | IC50 (second compound 10 µM)
inactive: viability, T/C (second compound 0.0316 µM, first compound 0.000999 µM) 89.2% | viability, T/C (second compound 0.0316 µM, first compound 0.00316 µM) 110% | viability, T/C (second compound 0.0316 µM, first compound 0.00999 µM) 89.4% | viability, T/C [1] 94.9% | viability, T/C (second compound 0.0316 µM, first compound 0.0999 µM) 90.8% | viability, T/C [2] 98% | viability, T/C (second compound 0.1 µM, first compound 0.000999 µM) 112% | viability, T/C (second compound 0.1 µM, first compound 0.00316 µM) 98.5% | viability, T/C (second compound 0.1 µM, first compound 0.00999 µM) 86.2% | viability, T/C [3] 80% | viability, T/C (second compound 0.1 µM, first compound 0.0999 µM) 85.1% | viability, T/C [4] 72% | viability, T/C (second compound 0.316 µM, first compound 0.000999 µM) 113% | viability, T/C (second compound 0.316 µM, first compound 0.00316 µM) 113% | viability, T/C (second compound 0.316 µM, first compound 0.00999 µM) 71.4% | viability, T/C [5] 89.1% | viability, T/C (second compound 0.316 µM, first compound 0.0999 µM) 91.5% | viability, T/C [6] 78% | viability, T/C (second compound 1 µM, first compound 0.000999 µM) 105% | viability, T/C (second compound 1 µM, first compound 0.00316 µM) 115% | viability, T/C (second compound 1 µM, first compound 0.00999 µM) 91.6% | viability, T/C [7] 86.5% | viability, T/C (second compound 1 µM, first compound 0.0999 µM) 103% | viability, T/C [8] 86.4% | viability, T/C (second compound 3.16 µM, first compound 0.000999 µM) 117% | viability, T/C (second compound 3.16 µM, first compound 0.00316 µM) 112% | viability, T/C (second compound 3.16 µM, first compound 0.00999 µM) 76.1% | viability, T/C [9] 85% | viability, T/C (second compound 3.16 µM, first compound 0.0999 µM) 84.5% | viability, T/C [10] 94.5% | viability, T/C (second compound 10 µM, first compound 0.000999 µM) 103% | viability, T/C (second compound 10 µM, first compound 0.00316 µM) 129% | viability, T/C (second compound 10 µM, first compound 0.00999 µM) 92% | viability, T/C [11] 83.7% | viability, T/C (second compound 10 µM, first compound 0.0999 µM) 84.8% | viability, T/C [12] 100%

O=C(NO)c1cnc(N2CCN(S(=O)(=O)c3ccc4ccccc4c3)CC2)nc1 + CN(C)c1ccc(Nc2c3ccc(NC(=O)CCN4CCCC4)cc3nc3cc(NC(=O)CCN4CCCC4)ccc23)cc1
412 nM: IC50 (second compound 0.0316 µM)
inactive: viability, T/C [1] 111% | viability, T/C (second compound 0.0316 µM, first compound 0.1 µM) 90% | viability, T/C [2] 65.2% | viability, T/C [3] 103% | viability, T/C (second compound 0.1 µM, first compound 0.1 µM) 91.5% | viability, T/C [4] 69.2% | viability, T/C [5] 109% | viability, T/C (second compound 0.316 µM, first compound 0.1 µM) 92.7% | viability, T/C [6] 65% | viability, T/C [7] 112% | viability, T/C (second compound 1 µM, first compound 0.1 µM) 93.2% | viability, T/C [8] 85% | viability, T/C [9] 100% | viability, T/C (second compound 3.16 µM, first compound 0.1 µM) 90.1% | viability, T/C [10] 82.3% | viability, T/C [11] 115% | viability, T/C (second compound 10 µM, first compound 0.1 µM) 85.8% | viability, T/C [12] 71%
active: viability, T/C (second compound 0.0316 µM, first compound 1 µM) 3.37% | viability, T/C (second compound 0.0316 µM, first compound 3.16 µM) 0.26% | viability, T/C (second compound 0.0316 µM, first compound 10 µM) 0.29% | viability, T/C (second compound 0.1 µM, first compound 1 µM) 5.67% | viability, T/C (second compound 0.1 µM, first compound 3.16 µM) 0.22% | viability, T/C (second compound 0.1 µM, first compound 10 µM) 0.27% | viability, T/C (second compound 0.316 µM, first compound 1 µM) 3.85% | viability, T/C (second compound 0.316 µM, first compound 3.16 µM) 0.2% | viability, T/C (second compound 0.316 µM, first compound 10 µM) 0.27% | viability, T/C (second compound 1 µM, first compound 1 µM) 3.59% | viability, T/C (second compound 1 µM, first compound 3.16 µM) 0.21% | viability, T/C (second compound 1 µM, first compound 10 µM) 0.25% | viability, T/C (second compound 3.16 µM, first compound 1 µM) 5.14% | viability, T/C (second compound 3.16 µM, first compound 3.16 µM) 0.2% | viability, T/C (second compound 3.16 µM, first compound 10 µM) 0.24% | viability, T/C (second compound 10 µM, first compound 1 µM) 3.61% | viability, T/C (second compound 10 µM, first compound 3.16 µM) 0.22% | viability, T/C (second compound 10 µM, first compound 10 µM) 0.26%
519 nM: IC50 (second compound 1 µM)
448 nM: IC50 (second compound 10 µM)
512 nM: IC50 (second compound 3.16 µM)
447 nM: IC50 (second compound 0.1 µM)
415 nM: IC50 (second compound 0.316 µM)
